Results from US20140275122A1, “Voriconazole Formulations” (Fresenius Kabi USA, LLC, priority 2013, published 2014).

Columns and labels:
[1] = aqueous liquid having a pH of 3; cited from earlier work
[2] = Storage stability of lyophilized voriconazole compositions, total impurities by HPLC after reconstitution; assay type: physicochemical
Description: Lyophilized compositions were formed by dissolving the excipient (SBECD or HPCD) in water and adjusting the pH of the resulting excipient solution. Voriconazole (200 mg) was added to the excipient solution, and the pH of the resulting lyophilization solution was adjusted as necessary. The lyophilization solutions were then filtered and lyophilized to form solid compositions. The lyophilization procedure was adjusted as need for each type of composition; however, the general procedure included reducing the temperature of the lyophilization solutions to −45° C., performing a primary drying at a temperature of from −35 to −15° C. and under a vacuum of from 50-200 milliTorr (mTorr), and performing a secondary drying at a temperature of 40° C. To ensure the lowest initial impurities possible, the solutions for lyophilization were prepared at low temperature, using a nitrogen blanket and purging.
Each composition was sealed in a 5 mL vial with a 13 mm rubber stopper (STELMI 6720GC; American Stelmi Corporation, Princeton, N.J.) and stored at 25° C., 40° C. or 55° C. (all temperatures ±2° C.). After storage for 4 or 8 weeks at 25° C., for 4, 8 or 12 weeks at 40° C., or for 2 or 4 weeks at 55° C., a portion of the vials were reconstituted with 19 mL of water for injection. The reconstituted liquids were analyzed by HPLC to determine the concentrations of voriconazole and of any impurities. For comparison, a portion of each composition was reconstituted at the beginning of the storage time (time=0 weeks) with 19 mL of water for injection, and analyzed by HPLC for voriconazole and impurity concentrations.
Solutions comprising HPCD and voriconazole were prepared as described in Example 1, except that the pH of the solution prior to lyophilization was adjusted to 5.18, 5.5, 6.0, 6.5, or 7.0. The lyophilized compositions were formed and then analyzed for the stability of voriconazole over time at 40° C. or 55° C., as described above with regard to Table 1. Table 2 lists the results of stability analyses of lyophilized compositions containing voriconazole in combination with HPCD, where the compositions had different pH values prior to lyophilization.
(§1) The lyophilized compositions were formed and then analyzed for voriconazole stability over time at 40° C. and 55° C., as described above with regard to Table 1. Table 3 lists the results of stability analyses of lyophilized compositions containing voriconazole in combination with HPCD, where the compositions further included one of the amino acids arginine, aspartic acid or glycine.
as §1, with “3.” for “1.”, “4” for “3”, “lysine, histidine, asparagine, glutamine” for “arginine, aspartic acid”, “threonine.” for “glycine.”
The effects of pH prior to lyophilization were analyzed for the formulations that included lactose. The lyophilized compositions were formed and then analyzed for voriconazole stability over time at 40° C. and 55° C., as described above with regard to Table 3. […]
The pH prior to lyophilization was adjusted to 6.2 with HCl/NaOH. The lyophilized compositions were formed and then analyzed for voriconazole stability over time at 40° C. and 55° C., as described above with regard to Table 3. […]

Total impurities (%) ([2]; lyophilized solid stored at 40 °C, 4 weeks): 0.70%
Total impurities (%) ([2]; lyophilized solid stored at 40 °C, 8 weeks): 0.34%
Total impurities (%) ([2]; lyophilized solid stored at 40 °C, 12 weeks): 0.43%
Total impurities (%) ([2]; lyophilized solid stored at 55 °C, 2 weeks): 0.58%
Total impurities (%) ([2]; lyophilized solid, time 0 weeks (reconstituted at beginning of storage)): 0.18%
SMILES: C[C@@H](c1ncncc1F)[C@](O)(Cn1cncn1)c1ccc(F)cc1F [voriconazole, (2R,3S)-2-(2,4-difluorophenyl)-3-(5-fluoro-4-pyrimidinyl)-1-(1H-1,2,4-triazol-1-yl)-2-butanol]
solubility of voriconazole [1]: 2000 µg/mL
